Results on one molecule are retold here after patent US8273780B2, “Polycyclic antagonists of lysophosphatidic acid receptors” (Amira Pharmaceuticals, Inc., priority 2009, dated 2012).

As a reminder, the IC50 is the concentration needed to halve the response being measured.

Experiment [1] concerns human A2058 melanoma cells. Nature of the experiment: LPA1 chemotaxis assay. Type of experiment: cell-based. Particulars: 100 nM LPA, read-out: inhibition of LPA-driven chemotaxis IC50. The method, then:
Chemotaxis of the A2058 human melanoma cells was measured using the Neuroprobe ChemoTx® System plates (8 μM pore size, 5.7 mm diameter sites). The filter sites were coated with 0.001% fibronectin (Sigma) in 20 mM Hepes, pH 7.4 and allowed to dry. A2058 cells were serum-starved for 24 hours, then harvested with Cell Stripper and resuspended in DMEM containing 0.1% fatty-acid-free bovine serum albumin (BSA) to a concentration of 1×10^6/ml. Cells were mixed with an equal volume of test compound (2×) in DMEM containing 0.1% fatty-acid-free BSA and incubated at 37° C. for 15 minutes. LPA (100 nM in DMEM containing 0.1% fatty-acid-free BSA) or vehicle was added to each well of the lower chamber and 50 μl of the cell suspension/test compound mix was applied to the upper portion of the ChemoTx plate. Plates were incubated at 37° C. for three hours and then the cells removed from the upper portion by rinsing with PBS and scraping. The filter was dried then stained with HEMA 3 Staining System (Fisher Scientific). The absorbance of the filter was read at 590 nm and IC50s were determined using Symyx Assay Explorer.

The next experiment has as its system C57B1/6 mice. The experiment can be described thus: Bleomycin-induced lung fibrosis model in mice. Type of experiment: in vivo. The conditions noted are these: for total lung collagen: chronic setting (14 day bleomycin model). The source says: Female C57B1/6 mice (Harlan, 25-30 g) are housed 4 per cage, given free access to food and water and allowed to acclimate for at least 7 days prior to test initiation. After the habituation phase, mice are lightly anesthetized with isoflurane (5% in 100% O2) and administered with bleomycin sulfate (0.01-5 U/kg, Henry Schein) via intratracheal instillation (Cuzzocrea S et al. Am J Physiol Lung Cell Mol Physiol. 2007 May; 292(5):L1095-104. Epub 2007 Jan. 12.). Mice are returned to their cages and monitored daily for the duration of the experiment. Test compound or vehicle is delivered po, ip or sc daily. The route and frequency of dosing is based on previously determined pharmacokinetic properties. All animals are sacrificed using inhaled isoflurane 3, 7, 14, 21 or 28 days after bleomycin instillation. Following sacrifice, mice are intubated with a 20 gauge angiocatheter attached to a 1 ml syringe. Lungs are lavaged with saline to obtain bronchoalveolar lavage fluid (BALF) and then removed and fixed in 10% neutral buffered formalin for subsequent histopathological analysis. BALF is centrifuged for 10 min at 800×g to pellet the cells and the cell supernatant removed and frozen at −80° C. for subsequent protein analysis using the DC protein assay kit (Biorad, Hercules, Calif.) and soluble collagen analysis using Sircol (Biocolor Ltd, UK). BALF is analyzed for concentrations of inflammatory, pro-fibrotic and tissue injury biomarkers including transforming growth factor β1, hyaluronic acid, tissue inhibitor of metalloproteinase-1, matrix matelloproteinase-7, connective tissue growth factor and lactate dehydrogenase activity, using commercially available ELISA. The cell pellet is re-suspended in PBS. Total cell counts are then obtained using a Hemavet hematology system (Drew Scientific, Wayne, Pa.) and differential cells counts are determined using Shandon cytospin (Thermo Scientific, Waltham, Mass.). Lung tissue is stained using hematoxylin and eosin (H&E) and trichrome and lung fibrosis is determined by semiquantitative histopathological scoring (Ashcroft T. et al. J. Clin. Path. 1988; 41; 4, 467-470) using light microscopy (10× magnification) and quantitative, computer-assisted densitometry of collagen in lung tissue sections using light microscopy. The data are plotted using Graphpad prism and statistical differences between groups determined.

The test system of another experiment is C57BL/6 mice. The experiment can be described thus: Mouse carbon tetrachloride (CCl4)-induced liver fibrosis model. It is filed as in vivo. The conditions noted are these: compared to the untreated group. The method, then:
Female C57BL/6 mice (Harlan, 20-25 g) housed 4/cage are given free access to food and water and allowed to acclimate for at least 7 days prior to test initiation. After the habituation phase, mice receive CCl4 (1.0 ml/kg body weight) diluted in corn oil vehicle (100 μL volume) via i.p. injection twice a week for 8 weeks. (Higazi, A. A. et al., Clin Exp Immunol. 2008 April; 152(1):163-73. Epub 2008 Feb. 14.). Control mice receive an equivalent volume of corn oil vehicle only. Test compound or vehicle is delivered po, ip or sc daily. […] Liver tissue homogenates are analyzed for collagen levels using Sircol (Biocolor Ltd, UK). Fixed Liver tissue is stained using hematoxylin and eosin (H&E) and trichrome and liver fibrosis is determined by quantitative, computer-assisted densitometry of collagen in liver tissue sections using light microscopy. Plasma and liver tissue lysates are also analyzed for concentrations of inflammatory, pro-fibrotic and tissue injury biomarkers including transforming growth factor β1, hyaluronic acid, tissue inhibitor of metalloproteinase-1, matrix matelloproteinase-7, connective tissue growth factor and lactate dehydrogenase activity, using commercially available ELISA. The resulting data are plotted using Graphpad prism and statistical differences between groups determined.

A further experiment relates to BALB/c mice. Nature of the experiment: Mouse dermal vascular leak assay. Type of experiment: in vivo. The conditions noted are these: 30 mg/kg oral gavage, three hours before dye; intradermal LPA 30 μg. The method, then: Female BALB/c mice (Harlan) weighing 20-25 grams were given free access to standard mouse chow and water and were allowed to acclimate for two weeks prior to study initiation. Compound 1 was prepared in water vehicle at a concentration of 3 mg/ml and delivered by oral gavage at a volume of 10 ml/kg to yield a dose of 30 mg/kg. Three hours following dose, mice were placed into a restraining device and given Evan's blue dye intravenously by tail vein injection (0.2 ml of a 0.5% solution). Mice were then anesthetized using 3% isoflurane anaesthesia to allow for intradermal injection of LPA (30 μg in 20 μl 0.1% fatty acid free BSA). Thirty minutes after LPA injection mice were sacrificed by CO2 inhalation and the skin removed from the challenge site and placed into 2 ml formamide for overnight extraction of Evan's blue dye.
Following extraction, a 150 μl aliquot of formamide for each tissue sample was placed into a 96 well plate and read at 610 nm using a photospectometer. The resulting data (OD units) were plotted using GraphPad Prizm. In this experiment compound 1 reduced LPA-induced Evan's blue dye leak into the skin.

Structures are written as SMILES.

Turning to `Cc1noc(-c2ccc(-c3ccc(C4(C(=O)O)CC4)cc3)cc2)c1NC(=O)O[C@H](C)c1ccccc1` [Compound 1, 1-{4′-[3-Methyl-4-((R)-1-phenyl-ethoxycarbonylamino)-isoxazol-5-yl]-biphenyl-4-yl}-cyclopropanecarboxylic acid], in experiment [1], the IC50 is less than 100 nM. Also, in the experiment with C57B1/6 mice (7-day bleomycin model), the “BALF MMP-7” value was “reduced”, the “BALF TGFβ1” value is reported as “reduced”, the BALF collagen entry is on record as “reduced” and the BALF hyaluronan entry is listed as “reduced”. Besides, in the experiment with C57B1/6 mice (7-day bleomycin model), the “BALF inflammatory cell influx” value was “reduced” and the BALF protein result is “reduced”. Besides, in the experiment with C57B1/6 mice (acute setting (3 day)), the “collagen concentration in BALF” value was “significantly reduced” and the “total protein concentration in BALF” value is given as “significantly reduced”. Besides, the total lung collagen entry with C57B1/6 mice (dosed prophylactically (day 0-day 14)) is “decreased”. The total lung collagen entry with C57B1/6 mice (dosed therapeutically (day 3-day 14)) is “decreased”. Further, in the experiment on C57BL/6 mice, the “collagen deposition in the liver” value was “significantly reduced” and the liver weight increase entry was “significantly reduced”. For the same molecule, the “LPA-induced Evan's blue dye leak into the skin” value in the experiment on BALB/c mice is “reduced”.
